Here are results for 29 compounds from patent US20240239788A1, “SMALL MOLECULE INHIBITORS OF KRAS G12D MUTANT” (Merck Sharp & Dohme LLC, priority 2021, published 2024).

Where a name gives a salt, the structure may show the parent alone.

Chain of KRAS protein containing G12D mutation (P01116 other isoform, or with tags, fused parts or gaps G12D (already in the parent)): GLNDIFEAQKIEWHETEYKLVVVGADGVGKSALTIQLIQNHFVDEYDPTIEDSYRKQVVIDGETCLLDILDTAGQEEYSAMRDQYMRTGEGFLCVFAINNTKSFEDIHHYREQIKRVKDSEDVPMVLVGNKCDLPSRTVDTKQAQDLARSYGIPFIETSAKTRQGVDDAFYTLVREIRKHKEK

The target of one test is KRAS protein containing G12D mutation (Homo sapiens (Human), UniProt P01116, G12D). Kind of test: SOS-catalyzed nucleotide exchange assay (GNE), TR-FRET. Format: biochemical. The settings on record: biotinylated KRAS G12D, SOS and GTP, 60-minute incubation. As for the experimental part:
Compounds are added to this complex and then after a 60-minute incubation time the mixture is treated with SOS and unlabeled GTP. Small molecule inhibitors stabilize the Bodipy-GDP complex whereas the untreated protein rapidly exchanges Bodipy-GDP for unlabeled GTP resulting in reduced TR-FRET signal.
This solution is referred to as biotinylated KRAS G12D stock solution.
`C[C@]12CCC(CN(c3nc(OC[C@H]4CC[C@@]5(CO)CCCN45)nc4c(F)c(-c5cc(O)cc6cccc(Cl)c56)c(F)cc34)C1)N2` [243a, 5-chloro-4-(6,8-difluoro-2-(((38,7aS)-7a-(hydroxymethyl)hexahydro-1H-pyrrolizin-3-yl)methoxy)-4-((1S,5R)-1-methyl-3,8-diazabicyclo[3.2.1]octan-3-yl)quinazolin-7-yl)naphthalen-2-ol] registered an IC50 of 346 nM. The same measure, in the same setting: the same measure for `C#Cc1cccc2cc3[nH]ncc3c(-c3c(F)cc4c(N5C[C@H]6CC[C@@](C)(C5)N6)nc(OC[C@@]56CCCN5C[C@H](F)C6)nc4c3F)c12` [Ex. 195, 4-(6,8-difluoro-2-(((2R, 7aS)-2-fluorotetra-hydro-1H-pyrrolizin-7a(5H)-yl)methoxy)-4-((1S,5R)-1-methyl-3,8-diazabicyclo[3.2.1]-octan-3-yl)quinazolin-7-yl)-5-ethynyl-1H-benzo[f]indazole]: 4.36 nM; for `Cc1nc(N)c(C#N)c(-c2c(F)cc3c(N4CC5CCC(C4)N5)nc(OC[C@@]45CCCN4C[C@H](F)C5)nc3c2F)c1C(F)(F)F` (single isomer, unassigned) [Ex. 156a]: 14 nM. Still for that read-out and setting: then `Cc1nc(N)cc(-c2c(F)cc3c(N4C[C@H]5CC[C@@](C)(C4)N5)nc(OCC4(CN5CCOCC5)CC4)nc3c2F)c1C(F)(F)F` (single isomer, unassigned) [Ex. 139b], with 287 nM; and `Oc1cc(-c2c(Cl)cc3c(N4CC5CCC(C4)N5)nc(OCC4(F)CNC4)nc3c2F)c2ccccc2c1` [Example 110, 4-(4-(3,8-diazabicyclo [3.2.1]octan-3-yl)-6-chloro-8-fluoro-2-((3-fluoroazetidin-3-yl)methoxy)quinazolin-7-yl)naphthalen-2-ol, TFA], with 770 nM. On the same count and under the same terms, then `CC(O)(COc1nc(N2CC3CC[C@@](C)(C2)N3)c2cc(F)c(-c3cc(O)cc4cccc(Cl)c34)c(F)c2n1)CN1CC[C@@H](F)C1` (single isomer, unassigned) [Ex. 210], with 2150 nM.

Compound `C[C@]12CCC(CN(c3nc(OC[C@@]45CCCN4C[C@H](F)C5)nc4c(F)c(-c5cc(O)cc6cccc(C(F)F)c56)c(F)cc34)C1)N2` (single isomer, unassigned) [Ex. 181a] yielded an IC50 of 3.97 nM. Compound `C[C@]12CC[C@H](CN(c3nc(OCC4(N)CCC4)nc4c(F)c(-c5cc(O)cc6ccccc56)c(F)cc34)C1)N2` [Example 114, 4-(2-((1-aminocyclobutyl)methoxy)-6,8-difluoro-4-((1S,5R)-1-methyl-3,8-diazabicyclo[3.2.1]octan-3-yl)quinazolin-7-yl)naphthalen-2-ol, TFA] came in with an IC50 of 794 nM.

For `C#Cc1c(F)ccc2ccc(F)c(-c3c(F)cc4c(N5CC6CC[C@@](C)(C5)N6)nc(OC[C@@]56CCCN5C[C@H](F)C6)nc4c3F)c12` (single isomer, unassigned) [246b], the IC50 worked out at 165 nM.

For `Cc1cc(-c2c(Cl)cc3c(N4C[C@H]5CC[C@@H](C4)N5)nc(OC[C@@]45CCCN4C[C@H](F)C5)nc3c2F)nc(N)c1OC(F)F` [Ex. 168, 6-(4-((1R,5S)-3,8-diazabicyclo[3.2.1]-octan-3-yl)-6-chloro-8-fluoro-2-(((2R,7aS)-2-fluorotetrahydro-1H-pyrrolizin-7a(5H)-yl)-methoxy)quinazolin-7-yl)-3-(difluorometh-oxy)-4-methylpyridin-2-amine], the IC50 was determined as 1310 nM.

`CNc1cc(C)c(C(F)(F)F)c(-c2c(F)cc3c(N4CC5CCC(C4)N5)nc(OCC4(CN5CCOCC5)CC4)nc3c2F)n1` (single isomer, unassigned) [Ex. 137a] yielded an IC50 of 1610 nM. The same measure, in the same setting: the same measure for `C[C@]12CCC(CN(c3nc(OC[C@@H]4CC[C@H]5CC(F)(F)CCN45)nc4c(F)c(-c5cc(O)cc6cccc(Cl)c56)c(F)cc34)C1)N2` (single isomer, unassigned) [Ex. 175b]: 11100 nM. `Cc1cc(N)nc(-c2c(Cl)cc3c(N4CC5CC(O)C(C4)N5)nc(OC[C@@]45CCCN4C[C@H](F)C5)nc3c2F)c1C(F)(F)F` (single isomer, unassigned) [249a]: the IC50 is 351 nM.

`C[C@@]12CC[C@H](CN(c3nc(OC[C@@]45CCCN4C[C@H](F)C5)nc4c(F)c(-c5cc(O)c(Cl)c6cccc(Cl)c56)c(F)cc34)C1)N2` (single isomer, unassigned) [Ex. 174b] yielded an IC50 of 1000 nM. Consider `C#Cc1cccc2cc(O)cc(-c3c(F)cc4c(N5CC6(C)CCC(C)(C5)N6)nc(OC[C@@]56CCCN5C[C@H](F)C6)nc4c3F)c12` [Example 124, 4-(4-(1,5-dimethyl-3,8-diazabicyclo[3.2.1]octan-3-yl)-6,8-difluoro-2-(((2R,7aS)-2-fluorotetrahydro-1H-pyrrolizin-7a(5H)-yl)methoxy)quinazolin-7-yl)-5-ethynylnaphthalen-2-ol], for which the IC50 was 1.21 nM.

Compound `Cc1cc(N)nc(-c2c(Cl)cc3c(N4CC5CCC(C4)N5)nc(OC[C@@]45CCCN4C[C@H](F)C5)nc3c2F)c1CC(F)(F)F` (single isomer, unassigned) [Ex. 157a] returned an IC50 of 113 nM. Same read-out and setting: then `Cc1nc(N)cc(-c2c(Cl)cc3c(N4C[C@H]5CC[C@@](C)(C4)N5)nc(OCC4(CN5CCOCC5)CC4)nc3c2F)c1C(F)(F)F` [Ex. 138, 4-(6-chloro-8-fluoro-4-((1S,5R)-1-methyl-3,8-diazabicyclo[3.2.1]octan-3-yl)-2-((1-(morpholinomethyl)cyclopropyl)methoxy)quinazolin-7-yl)-6-methyl-5-(trifluorometh-yl)pyridin-2-amine], with 361 nM; and `C[C@]12CCC(CN(c3nc(OC[C@]4(CNCC(F)F)CC4(F)F)nc4c(F)c(-c5cc(O)cc6cccc(Cl)c56)c(F)cc34)C1)N2` (single isomer, unassigned) [Ex. 221], with 1110 nM. Still for that read-out and setting: then `C[C@]12CCC(CN(c3nc(OC[C@@]45CCCN4C[C@H](F)C5)nc4c(F)c(-c5cc(O)cc6cccc(C(F)F)c56)c(F)cc34)C1)N2` (single isomer, unassigned) [Ex. 181b], with 141 nM; and `Cc1cccc2cc(O)cc(-c3c(F)cc4c(N5CC6CC[C@@](C)(C5)N6)nc(OC[C@@]56CCCN5C[C@H](F)C6)nc4c3F)c12` (single isomer, unassigned) [Ex. 179b], with 727 nM; and `Nc1cc(-c2c(Cl)cc3c(N4CC5CCC(C4)N5)nc(OC[C@@]45CCCN4C[C@H](F)C5)nc3c2F)c(C(F)(F)F)c(Cl)n1` (single isomer, unassigned) [Ex. 155a], with 330 nM. Same read-out and setting: then `C#Cc1cccc2cc(O)cc(-c3c(F)cc4c(N5C[C@]6(C)CC[C@](F)(C5)N6)nc(OC[C@@]56CCCN5C[C@H](F)C6)nc4c3F)c12` [compound 240, 4-(6,8-difluoro-4-((18,5S)-1-fluoro-5-methyl-3,8-diazabicyclo[3.2.1]octan-3-yl)-2-(((2R,7aS)-2-fluorotetrahydro-1H-pyrrolizin-7a(5H)-yl)methoxy)quinazolin-7-yl)-5-ethynylnaphthalen-2-ol], with 135 nM; and `Cc1cc2cn(C)nc2c(-c2c(F)cc3c(N4C[C@H]5CC[C@@H](C4)N5)nc(OC[C@@]45CCCN4C[C@H](F)C5)nc3c2F)c1C(F)(F)F` [251b, 4-((1R,5)-3,8-diazabicyclo[3.2.1]octan-3-yl)-7-(2,5-dimethyl-6-(trifluoromethyl)-2H-indazol-7-yl)-68-difluoro-2-(((2R,7aS)-2-fluorotetrahydro-1H-pyrrolizin-7a(5H)-yl)methoxy)quinazoline], with 935 nM. `Cc1cc(N)nc(-c2c(Cl)cc3c(N4CC5CCC(C4)N5)nc(OC[C@@]45CCCN4[C@H](CO)CC5)nc3c2F)c1C(F)(F)F` [Ex. 150] came in with an IC50 of 2.04 nM.

The compound `C[C@]12CC[C@H](CN(c3nc(OCC4(N)CCOC4)nc4c(F)c(-c5cc(O)cc6ccccc56)c(F)cc34)C1)N2` (stereo partly drawn) [Example 113, 4-(2-((3-amino-tetrahydrofuran-3-yl)methoxy)-6,8-difluoro-4-((1S,5R)-1-methyl-3,8-diazabicyclo [3.2.1]octan-3-yl)quinazolin-7-yl)naphthalen-2-ol, TFA] yielded an IC50 of 697 nM. With `Nc1cc2cccc(Cl)c2c(-c2c(F)cc3c(N4CC5CCC(C4)N5)nc(OC[C@@]45CCCN4C[C@H](F)C5)nc3c2F)n1` (single isomer, unassigned) [Ex. 189b], the IC50 turned out to be 11100 nM.

Regarding `C[C@]12CCC(CN(c3nc(OCC45CCCN4CC(C(F)F)C5)nc4c(F)c(-c5cc(O)cc6cccc(Cl)c56)c(F)cc34)C1)N2` (single isomer, unassigned) [Ex. 173-2b], the IC50 was 2230 nM.

The subject of the next test is AsPC-1 cells containing homozygous KRAS-G12D activating mutation. Kind of test: Cellular phospho-ERK assay with 10% FBS (Examples 107a-256). Format: cell-based. The settings on record: Homo sapiens, ASPC1, 2 h, read-out: IC50 (nM) pERK (cell with FBS 10%), AsPC-1 cells, 10% fetal bovine serum, 2 hours, ratio of p-Erk vs total Erk. The protocol:
5% CO2 for 2 hours. […] Assay plates were read on a EnVision Multimode Plate Reader (PerkinElmer) and the ratio of p-Erk vs total Erk in each well was used as the final readout.
As to `C[C@]12CCC(CN(c3nc(OC[C@H]4CC[C@@]5(CO)CCCN45)nc4c(F)c(-c5cc(O)cc6cccc(Cl)c56)c(F)cc34)C1)N2` [243a, 5-chloro-4-(6,8-difluoro-2-(((38,7aS)-7a-(hydroxymethyl)hexahydro-1H-pyrrolizin-3-yl)methoxy)-4-((1S,5R)-1-methyl-3,8-diazabicyclo[3.2.1]octan-3-yl)quinazolin-7-yl)naphthalen-2-ol], the IC50 came out at 30000 nM.

For the compound `C#Cc1cccc2cc3[nH]ncc3c(-c3c(F)cc4c(N5C[C@H]6CC[C@@](C)(C5)N6)nc(OC[C@@]56CCCN5C[C@H](F)C6)nc4c3F)c12` [Ex. 195, 4-(6,8-difluoro-2-(((2R, 7aS)-2-fluorotetra-hydro-1H-pyrrolizin-7a(5H)-yl)methoxy)-4-((1S,5R)-1-methyl-3,8-diazabicyclo[3.2.1]-octan-3-yl)quinazolin-7-yl)-5-ethynyl-1H-benzo[f]indazole], the IC50 worked out at 79.6 nM.

Staying with this test, now noted: read-out: IC50 (nM) pERK (cell with FBS 10%); AsPC-1 cells, 10% fetal bovine serum, 2 hours, ratio of p-Erk vs total Erk.
For `C[C@]12CCC(CN(c3nc(OC[C@@]45CCCN4C[C@H](F)C5)nc4c(F)c(-c5cc(O)cc6cccc(C(F)F)c56)c(F)cc34)C1)N2` (racemic) [Ex. 181b, rac-4-(6,8-difluoro-2-(((2R,7aS)-2-fluoro-tetrahydro-1H-pyrrol-izin-7a(5H)-yl)meth-oxy)-4-((1S,5R)-1-methyl-3,8-diaza-bicyclo[3.2.1]octan-3-yl)quinazolin-7-yl)-5-(difluoromethyl)naph-thalen-2-ol], the IC50 stood at 2660 nM.

As to `C[C@]12CCC(CN(c3nc(OC[C@@]45CCCN4C[C@H](F)C5)nc4c(F)c(-c5cc(O)cc6cccc(C(F)F)c56)c(F)cc34)C1)N2` (racemic) [Ex. 181a, rac-4-(6,8-difluoro-2-(((2R,7aS)-2-fluoro-tetrahydro-1H-pyrrol-izin-7a(5H)-yl)meth-oxy)-4-((18,5R)-1-methyl-3,8-diaza-bicyclo[3.2.1]octan-3-yl)quinazolin-7-yl)-5-(difluoromethyl)naph-thalen-2-ol], the IC50 was determined as 122 nM.
